What is called melting point is the temperature, or range, at which the solid turns liquid.

`O=C(O)c1coc(-c2ccc(Cl)c(C(=O)NCC34CC5CC(CC(C5)C3)C4)c2)n1` [Example 23, 2-[4-Chloro-3-[[(tricyclo[3.3.1.1^3,7]dec-1-ylmethyl)amino]carbonyl]phenyl]-4-oxazolecarboxylic acid]: the melting point was in the range of 254 to 257 °C. Turning to `O=C(NCC12CC3CC(CC(C3)C1)C2)c1cc(-c2cc(F)ccc2C(=O)O)ccc1Cl` [Example 36, 4′-Chloro-5-fluoro-3′-[[(tricyclo[3.3.1.1^3,7]dec-1-ylmethyl)amino]carbonyl]-[1,1′-biphenyl]-2-carboxylic acid], the melting point was 120 to 124 °C. With `C[C@H](Oc1ccc(-c2ccc(Cl)c(C(=O)NCC34CC5CC(CC(C5)C3)C4)c2)cc1)C(=O)O` [Example 43, (2S)-2-[[4′-Chloro-3′-[[(tricyclo[3.3.1.1^3,7]dec-1-ylmethyl)amino]carbonyl][1,1′-biphenyl]-4-yl]oxy]-propanoic acid], the melting point lay within 145 to 150 °C. The compound `CS(=O)(=O)NC(=O)c1cccc(-c2ccc(Cl)c(C(=O)NCC34CC5CC(CC(C5)C3)C4)c2)n1` [Example 25, 6-[4-Chloro-3-[[(tricyclo[3.3.1.1^3,7]dec-1-ylmethyl)amino]carbonyl]phenyl]-N-(methylsulfonyl)-2-pyridinecarboxamide] returned a melting point of 160 to 162 °C. Compound `O=C(NCC12CC3CC(CC(C3)C1)C2)c1cc(-c2cccnc2N2CCC[C@H]2C(=O)O)ccc1Cl` [Example 60, 1-[3-[4-Chloro-3-[[(tricyclo[3.3.1.1^3,7]dec-1-ylmethyl)amino]carbonyl]phenyl]-2-pyridinyl]-L-proline] showed a melting point of 121 to 125 °C. `Cc1cccc(C(=O)O)c1-c1ccc(Cl)c(C(=O)NCC23CC4CC(CC(C4)C2)C3)c1` [Example 18, 4′-Chloro-6-methyl-3′-[[(tricyclo[3.3.1.1^3,7]dec-1-ylmethyl)amino]carbonyl]-[1,1′-biphenyl]-2-carboxylic acid] showed a melting point of 151 to 154 °C. With `Cc1ccnc(-c2ccc(Cl)c(C(=O)NCC34CC5CC(CC(C5)C3)C4)c2)c1C(=O)O` [Example 53, 2-[4-Chloro-3-[[(tricyclo[3.3.1.1^3,7]dec-1-ylmethyl)amino]carbonyl]phenyl]-4-methyl-3-pyridinecarboxylic acid], the melting point was in the range of 177 to 180 °C. Regarding `O=C(O)CNc1cccnc1-c1ccc(Cl)c(C(=O)NCC23CC4CC(CC(C4)C2)C3)c1` [Example 47, N-[2-[4-Chloro-3-[[(tricyclo[3.3.1.1^3,7]dec-1-ylmethyl)amino]carbonyl]phenyl]-3-pyridinyl]-glycine], the melting point fell in the range of 190 to 194 °C.

Take `O=C(O)COc1ccc(-c2ccc(Cl)c(C(=O)NCC34CC5CC(CC(C5)C3)C4)c2)cc1` [Example 40, [[4′-Chloro-3′-[[(tricyclo[3.3.1.1^3,7]dec-1-ylmethyl)amino]carbonyl][1,1′-biphenyl]-4-yl]oxy]-acetic acid]: the melting point was 136 to 140 °C. `O=C(NCC12CC3CC(CC(C3)C1)C2)c1cc(-c2cccnc2N2CCC(O)(C(=O)O)CC2)ccc1Cl` [Example 65, 1-[3-[4-Chloro-3-[[(tricyclo[3.3.1.1^3,7]dec-1-ylmethyl)amino]carbonyl]phenyl]-2-pyridinyl]-4-hydroxy-4-piperidinecarboxylic acid]: the melting point fell in the range of 145 to 150 °C.

On to `O=C(O)c1ccnc(-c2ccc(Cl)c(C(=O)NCC34CC5CC(CC(C5)C3)C4)c2)c1` [Example 12, 2-[4-Chloro-3-[[(tricyclo[3.3.1.1^3,7]dec-1-ylmethyl)amino]carbonyl]phenyl]-4-pyridinecarboxylic acid], for which the melting point is 284 to 287 °C. `O=C(O)c1cccc(-c2ccc(Cl)c(C(=O)NCC34CC5CC(CC(C5)C3)C4)c2)n1` [Example 20, 6-[4-Chloro-3-[[(tricyclo[3.3.1.1^3,7]dec-1-ylmethyl)amino]carbonyl]phenyl]-2-pyridinecarboxylic acid] registered a melting point of 170 to 173 °C. The compound `O=C(NCC12CC3CC(CC(C3)C1)C2)c1cc(-c2ncccc2OCc2nnn[nH]2)ccc1Cl` [Example 29, 2-Chloro-5-[3-(1H-tetrazol-5-ylmethoxy)-2-pyridinyl]-N-(tricyclo[3.3.1.1^3,7]dec-1-ylmethyl)-benzamide] showed a melting point of 122 to 126 °C.

`O=C(O)c1cccc(-c2cc(C(=O)NCC34CC5CC(CC(C5)C3)C4)c(Cl)cn2)c1` [Example 7, 3-[5-Chloro-4-[[(tricyclo [3.3.1.1^3,7]dec-1-ylmethyl)amino]carbonyl]-2-pyridinyl]-benzoic acid] came in with a melting point of 200 to 202 °C.

Take `O=C(O)COc1cccnc1-c1ccc(Cl)c(C(=O)NCC23CC4CC(CC(C4)C2)C3)c1` [Example 46, [[2-[4-Chloro-3-[[(tricyclo[3.3.1.1^3,7]dec-1-ylmethyl)amino]carbonyl]phenyl]-3-pyridinyl]oxy]-acetic acid]: the melting point was 133 to 137 °C. `O=C(NCCC12CC3CC(CC(C3)C1)C2)c1cc(-c2ccccc2C(=O)O)ccc1Cl` [Example 49, 4′-Chloro-3′-[[(2-tricyclo[3.3.1.1^3,7]dec-1-ylethyl)amino]carbonyl]-[1,1′-biphenyl]-2-carboxylic acid]: the melting point fell in the range of 114 to 117 °C. In turn, `O=C(NCC12CC3CC(CC(C3)C1)C2)c1cc(-c2cccnc2N2CC(C(=O)O)C2)ccc1Cl` [Example 62, 1-[3-[4-Chloro-3-[[(tricyclo[3.3.1.1^3,7]dec-1-ylmethyl)amino]carbonyl]phenyl]-2-pyridinyl]-3-azetidinecarboxylic acid] returned a melting point of 145 to 150 °C.

As for `Cn1cc(-c2ccc(Cl)c(C(=O)NCC34CC5CC(CC(C5)C3)C4)c2)c(C(=O)O)n1` [Example 31, 4-[4-Chloro-3-[[(tricyclo[3.3.1.1^3,7]dec-1-ylmethyl)amino]carbonyl]phenyl]-1-methyl-1H-pyrazole-3-carboxylic acid], the melting point is 166 to 175 °C (dec.). For `O=C(NCC12CC3CC(CC(C3)C1)C2)c1cc(-c2nccnc2-c2nnn[nH]2)ccc1Cl` [Example 9, 2-Chloro-5-[3(1-H-tetrazol-5-yl)pyrazinyl]-N-(tricyclo[3.3.1.1^3,7]dec-1-ylmethyl)-benzamide], the melting point is 254 °C (dec.).

Compound `O=C(NCC12CC3CC(CC(C3)C1)C2)c1cc(-c2cccnc2N2CCC(C(=O)O)CC2)ccc1Cl` [Example 59, 1-[3-[4-Chloro-3-[[(tricyclo[3.3.1.1^3,7]dec-1-ylmethyl)amino]carbonyl]phenyl]-2-pyridinyl]-4-piperidinecarboxylic acid] gave a melting point of 110 to 115 °C. With `N#CNc1cncc(-c2ccc(Cl)c(C(=O)NCC34CC5CC(CC(C5)C3)C4)c2)n1` [Example 4, 2-Chloro-5-[6-(cyanoamino)pyrazinyl]-N-(tricyclo[3.3.1.1^3,7]dec-1-ylmethyl)-benzamide], the melting point is 215 to 220 °C (dec.). The result for `O=C(NCCC12CC3CC(CC(C3)C1)C2)c1cc(-c2cccnc2C(=O)O)ccc1Cl` [Example 50, 3-[4-Chloro-3-[[(2-tricyclo[3.3.1.1^3,7]dec-1-ylethyl)amino]carbonyl]phenyl]-2-pyridinecarboxylic acid] reads 108 to 111 °C.

(Values after patent US20080153850A1, “Adamantyl Derivates as P2x7 Receptor Antagonists” (AstraZeneca AB, priority 2004, published 2008).)
